Assay results published in publication PMC12203613 (Journal of Agricultural and Food Chemistry, 2025).

Legend:
Type in all cases: biochemical
[1] = molecular target: T1, OsHPPD (4-hydroxyphenylpyruvate dioxygenase) (Oryza sativa, UniProt Q6H4V1); test: coupled enzyme assay
T1 sequence (Q6H4V1 2-446): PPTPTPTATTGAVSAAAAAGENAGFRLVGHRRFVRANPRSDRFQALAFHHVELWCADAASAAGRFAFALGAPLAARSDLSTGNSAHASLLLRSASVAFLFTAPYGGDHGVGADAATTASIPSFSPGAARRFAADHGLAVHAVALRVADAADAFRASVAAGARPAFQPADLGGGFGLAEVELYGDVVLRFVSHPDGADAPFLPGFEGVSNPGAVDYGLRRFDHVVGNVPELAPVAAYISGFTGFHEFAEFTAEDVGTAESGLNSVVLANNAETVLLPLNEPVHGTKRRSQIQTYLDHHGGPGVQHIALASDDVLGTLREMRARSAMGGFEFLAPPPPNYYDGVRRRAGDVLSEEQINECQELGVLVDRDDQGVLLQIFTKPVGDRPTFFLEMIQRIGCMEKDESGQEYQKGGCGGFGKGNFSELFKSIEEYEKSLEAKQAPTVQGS

[2] = molecular target: T2, AtHPPD (4-hydroxyphenylpyruvate dioxygenase) (Arabidopsis thaliana, UniProt P93836); test: coupled enzyme assay
T2 sequence (P93836 1-445): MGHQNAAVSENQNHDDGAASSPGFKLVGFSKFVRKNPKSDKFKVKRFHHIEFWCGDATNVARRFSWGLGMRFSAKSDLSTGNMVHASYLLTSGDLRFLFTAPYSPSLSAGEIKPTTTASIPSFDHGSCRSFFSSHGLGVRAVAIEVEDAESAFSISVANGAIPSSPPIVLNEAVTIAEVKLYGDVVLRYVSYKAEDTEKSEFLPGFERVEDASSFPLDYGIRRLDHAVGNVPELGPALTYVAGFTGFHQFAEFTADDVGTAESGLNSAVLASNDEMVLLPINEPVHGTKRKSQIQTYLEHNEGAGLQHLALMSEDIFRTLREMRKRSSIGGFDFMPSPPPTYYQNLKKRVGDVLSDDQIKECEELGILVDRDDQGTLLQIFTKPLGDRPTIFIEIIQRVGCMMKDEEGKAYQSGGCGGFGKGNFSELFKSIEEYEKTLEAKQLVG

[3] = molecular target: T2, AtHPPD (4-hydroxyphenylpyruvate dioxygenase); test: X-ray co-crystal structure at […] Å
[4] = molecular target: T1, OsHPPD (4-hydroxyphenylpyruvate dioxygenase); test: X-ray co-crystal structure at […] Å

SMILES	Ki [1] [nM]	Ki [2] [nM]	Ki [3] [nM]	Ki [4] [nM]
CS(=O)(=O)c1ccc(C(=O)C2C(=O)CCCC2=O)c([N+](=O)[O-])c1 [mesotrione]	26.5 ± 10.8	22.1 ± 4.5		
Cc1nnc(NC(=O)c2ccc(C(F)(F)F)n3c(CS(=O)(=O)C(C)C)nnc23)o1 [iptriazopyrid, 3-[(isopropylsulfonyl)-methyl]-N-(5-methyl-1,3,4-oxadiazol-2-yl)-5-(trifluoromethyl)-[1,2,4]-triazolo[4,3-a]-pyridine-8-carboxamide]			24.3 ± 0.3	33.3 ± 3.3
